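1) Cells in 96-well plates. 2) Compound, 48 h, 5 concentrations. 3) Linear interpolation between surrounding doses. 4) Unreached endpoint = highest concentration. GI50: concentration for 50% inhibition of growth. The concentration for full growth arrest is given as TGI.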
Key:
Test in all cases: inhibition of tumour cell growth, NCI panel, 48 h
[1] = system: SK-MEL-2 melanoma
[2] = system: A498 renal
[3] = system: OVCAR-4 ovarian
[4] = system: HT29 colon
[5] = system: SNB-75 CNS
[6] = system: SN12C renal
[7] = system: SNB-19 CNS
[8] = system: SK-MEL-5 melanoma
[9] = system: MDA-MB-435
[10] = system: PC-3 prostate

Compound | TGI [1] | TGI [2] | TGI [3] | TGI [4] | TGI [5] | TGI [6] | TGI [7] | GI50 [1] | GI50 [8] | TGI [8] | GI50 [2] | GI50 [3] | GI50 [9] | TGI [9] | GI50 [4] | GI50 [5] | GI50 [6] | GI50 [7] | GI50 [10] | TGI [10]
O=C(O)CCSC(=O)Nc1cccc([N+](=O)[O-])c1 | > 100 µM | > 100 µM | > 100 µM | > 100 µM | > 100 µM | > 100 µM | > 100 µM |  |  |  |  |  |  |  |  |  |  |  |  | 
O=C(O)CN(c1ccccc1)S(=O)(=O)c1ccc(Cl)cc1 | > 100 µM | > 100 µM | > 100 µM | > 100 µM | > 100 µM | > 100 µM | > 100 µM |  |  |  |  |  |  |  |  |  |  |  |  | 
CCCCNC(=O)Oc1ccc2c(=O)c3sc4c(=O)c5ccccc5c(=O)c4c3c(=O)c2c1 | 3.3 µM | 2.22 µM | 2.15 µM | 5.6 µM | 0.421 µM | 0.35 µM | 1.05 µM | 1.37 µM | 0.103 µM | 0.224 µM | 1.04 µM | 0.977 µM | 0.172 µM | 0.328 µM | 2.31 µM | 0.189 µM | 0.174 µM | 0.287 µM |  | 
COc1cc2c(=O)n(CCCn3ccnc3)c3c4cc5c(cc4ccc3c2cc1OC)OCO5 | > 83.8 µM |  |  | > 100 µM | 9.45 µM | > 100 µM | 42.8 µM | 8.06 µM |  |  |  |  |  |  | 0.492 µM | 0.298 µM | 0.635 µM | 0.496 µM | 0.774 µM | > 100 µM
Cc1cccc2c1O/C(=C\c1ncc([N+](=O)[O-])n1C)C2=O | 0.584 µM |  | 6.65 µM | 0.404 µM | 3.36 µM |  | 4.6 µM | 0.246 µM | 0.152 µM | 0.367 µM |  | 0.635 µM | 0.153 µM | 0.35 µM | 0.104 µM | 0.781 µM |  | 0.615 µM | 0.445 µM | 
CCCC1C(=O)C(CC)Cc2c(OC)ccc(OC)c21 (stereo unspecified) | > 100 µM |  | > 100 µM | > 100 µM | > 100 µM | > 100 µM | > 100 µM |  |  | > 100 µM |  |  |  |  |  |  |  |  |  | 
N#CC(C(=O)CCC(=O)Nc1ccc(Cl)cc1)c1ccccc1Cl (stereo unspecified) | > 100 µM | > 100 µM | > 100 µM |  | > 100 µM | > 100 µM | > 100 µM |  |  | > 100 µM |  |  |  |  |  |  |  |  |  | 
CCN(CC)C(=O)CNC(=O)OC(C)(C)C | > 100 µM | > 100 µM | > 100 µM | > 100 µM | > 100 µM | > 100 µM | > 100 µM |  |  | > 100 µM |  |  |  |  |  |  |  |  |  | 
CC(C(=O)c1ccccc1)C1(O)C(=O)Nc2ccccc21 (stereo unspecified) | > 100 µM | > 100 µM | > 100 µM | > 100 µM | > 100 µM | > 100 µM | > 100 µM |  |  | > 100 µM |  |  |  |  |  |  |  |  |  | 
C[Si](C)(C)/C=C\CCCN1C(=O)CCC1=O | > 100 µM | > 100 µM |  | > 100 µM | > 100 µM | > 100 µM | > 100 µM |  |  | > 100 µM |  |  |  |  |  |  |  |  |  | 
O=C(c1cc2c(C(F)(F)F)onc2c2ccccc12)C(F)(F)F | 13.6 µM | 34.9 µM | > 100 µM | > 61.7 µM | 15.4 µM | 7.85 µM | > 27.9 µM |  |  | 15.5 µM |  |  |  |  |  |  |  |  |  | 
CCOC(=O)CNC1C(NC(C)=O)C(OC)OC2COC(c3ccccc3)OC21 (stereo unspecified) | > 100 µM | > 100 µM | > 100 µM | > 100 µM | > 100 µM | > 100 µM | > 100 µM |  |  | > 100 µM |  |  |  |  |  |  |  |  |  | 
NNC(=O)CCC(=O)Nc1ccc(Cl)cc1Cl | > 100 µM | > 100 µM | > 100 µM | > 100 µM | > 100 µM | > 100 µM | > 100 µM |  |  | > 100 µM |  |  |  |  |  |  |  |  |  | 
COc1cc2ccnc3c2c(c1OC)CC1CC(O)C(OC)CC31 (stereo unspecified) | > 100 µM |  | > 100 µM | > 100 µM | > 100 µM | > 100 µM | > 100 µM |  |  | > 100 µM |  |  |  |  |  |  |  |  |  | 
NC(=O)c1cc(Cl)ccc1NC(=O)c1ccccc1-c1ccccc1 | 0.799 µM | 9.78 µM | > 100 µM | 11.5 µM | 3.2 µM | > 100 µM | > 100 µM | 0.288 µM | 0.425 µM | 15.9 µM | 0.155 µM | 0.798 µM |  |  | 0.385 µM | 0.273 µM | 1.78 µM | 0.709 µM | 0.567 µM | > 100 µM
COc1cc([C@@H]2c3cc4c(cc3[C@@H](NCc3ccc(C#N)cc3)C3COC(=O)[C@@H]32)OCO4)cc(OC)c1O (stereo partly specified) | 6.54 µM | 3.84 µM | > 100 µM | 3.15 µM | 3.25 µM | 3.02 µM | > 100 µM |  |  | 8.37 µM |  |  |  |  |  |  |  |  |  | 
CC([C@H]1CCC2C3CCC4CC5(CC[C@]4(C)C3CC[C@@]21C)c1ccccc1C(=O)N5C)N(C)C (stereo partly specified) | 42.9 µM | > 100 µM | > 100 µM | 68.2 µM | 74.1 µM | > 100 µM | > 100 µM |  |  | 42.9 µM |  |  |  |  |  |  |  |  |  | 
CCCCCCCC(=O)OCC1OC(n2cc(F)c(=O)[nH]c2=O)C(NC(=O)OCc2ccccc2)C(OC(=O)CCCCCCC)C1O (stereo unspecified) | 57.1 µM | > 100 µM | 83 µM | > 100 µM | > 100 µM | 27.4 µM |  |  |  | 11.1 µM |  |  |  |  |  |  |  |  |  | 
CC1Cc2c(N)nc(N3CCOCC3)nc2NC1=O (stereo unspecified) | > 100 µM |  |  | > 100 µM | > 100 µM | > 100 µM | > 100 µM |  |  | > 100 µM |  |  |  |  |  |  |  |  |  | 
C[C@]12CC(C#N)C(=O)C(O)=C1CC[C@@H]1C2CC[C@@]2(C)C1CC[C@@H]2O (stereo partly specified) | > 100 µM | 28.9 µM | > 100 µM | > 100 µM | 63.1 µM | > 100 µM | > 100 µM |  |  | > 100 µM |  |  |  |  |  |  |  |  |  | 
O=C1C(Cl)=C(Nc2cccc(O)c2)C(=O)N1c1cccc(Cl)c1 | > 100 µM |  | > 100 µM | > 100 µM |  | 59.8 µM | > 100 µM | 34.7 µM | 50.4 µM | > 100 µM |  | 50.6 µM | 43 µM | > 100 µM | 37.3 µM |  | 21.9 µM | 71.5 µM | 21.4 µM | > 100 µM
CC(C)c1cccc(C(C)C)c1N=C(N)C#N | > 100 µM | > 100 µM | > 100 µM | > 100 µM | > 100 µM | > 100 µM | > 100 µM |  |  | > 100 µM |  |  |  |  |  |  |  |  |  | 
